The values that follow come from patent publication US9693560B2, “Microbicide substances” (LANXESS Deutschland GmbH, priority 2013, dated 2017).

Common to all, as to assay type: cell-based
The test system of one assay is Stachybotrys chartarum. Put plainly: MIC growth test (malt extract Bouillon). The protocol: (§1) The growth of bacteria and fungi upon the addition of different biocidal mixtures was tested. The concentration above which growth is no longer detected is given as the minimum inhibitory concentration (MIC). The precultivation of the bacteria which were used in the test was performed on tryptone soya agar. The precultivation of the fungi which were used in the test was performed on malt extract agar. The growth in the MIC tests was checked in tryptone soya broth (bacteria) or malt extract Bouillon (fungi). The organisms were incubated at 26° C. and a relative […] humidity of 70 to 80%. The bacteria were evaluated after 4 days, and the fungi were evaluated […] after 7 days.
(§2) The synergistic index (SI) was determined in accordance with the method described by Kull et al. (F. C. Kull et al., Applied Microbiology 9 (1961), 538-541).
(§3) The following equation applies here: SI=QA/Qa+QB/Qb

For another assay, the system named is Alternaria alternata. The assay can be described thus: MIC growth test (malt extract Bouillon). As for the experimental part:
as §1, §2, §3

The next assay has as its system Escherichia coli. The assay can be described thus: MIC growth test (tryptone soya broth). As for the experimental part: as §1, §2, §3
For another assay, the system named is Candida albicans. Put plainly: MIC growth test (malt extract Bouillon). As for the experimental part:
as §1, §2, §3

Another assay relates to Enterococcus hirae. The assay can be described thus: MIC growth test (tryptone soya broth). The protocol: as §1, §2, §3
The subject of the next assay is Bacillus subtilis. The assay can be described thus: MIC growth test (tryptone soya broth). As for the experimental part:
as §1, §2, §3

The subject of assay [1] is Corynebacterium ammoniagenes. The assay can be described thus: MIC growth test (tryptone soya broth). The protocol: as §1, §2, §3
Another assay deals with Citrobacter freundii. The assay can be described thus: MIC growth test (tryptone soya broth). The protocol: as §1, §2, §3
Another assay relates to Proteus hauseri. The assay can be described thus: MIC growth test (tryptone soya broth). The protocol: as §1, §2, §3
The next assay deals with Staphylococcus aureus. The assay can be described thus: MIC growth test (tryptone soya broth). As for the experimental part:
as §1, §2, §3

A further assay has as its system Alcaligenes faecalis. Put plainly: MIC growth test (tryptone soya broth). The protocol:
as §1, §2, §3

The next assay relates to Pseudomonas aeruginosa. The assay can be described thus: MIC growth test (tryptone soya broth). The protocol:
as §1, §2, §3

For another assay, the system named is Pseudomonas stutzeri. The assay can be described thus: MIC growth test (tryptone soya broth). As for the experimental part: as §1, §2, §3
The next assay relates to Enterobacter aerogenes. Put plainly: MIC growth test (tryptone soya broth). The protocol: as §1, §2, §3
The subject of another assay is Paecilomyces formosus. The assay can be described thus: MIC growth test (malt extract Bouillon). The protocol:
as §1, §2, §3

Another assay relates to Geotrichum candidum. The assay can be described thus: MIC growth test (malt extract Bouillon). As for the experimental part: as §1, §2, §3
A further assay deals with Penicillium pinophilum. The assay can be described thus: MIC growth test (malt extract Bouillon). Conditions: Talaromyces pinophilus. The protocol:
as §1, §2, §3

In another assay the test system is Salmonella enterica. The assay can be described thus: MIC growth test (tryptone soya broth). To be noted: Example 3, Table 11. The protocol: as §1, §2, §3

Structures can show the parent of a compound that is named as a salt. Where two headings read alike, the source gives them in different places.

In the case of `Cn1sccc1=O` [MIT, 2-methyl-4-isothiazolin-3-one], the MIC with Stachybotrys chartarum (Example 4, Table 23) amounted to 250 µg/mL; in the assay with Alternaria alternata it was 100 µg/mL; in the assay with Escherichia coli, 25 µg/mL.
As for `O=c1[nH]sc2ccccc12` [BIT, 1,2-benzisothiazolin-3-one], the MIC with Candida albicans (Example 3, Table 17) is on record as 25 ppm; with Enterococcus hirae (Example 3, Table 11), 10 ppm; in the assay on Bacillus subtilis (Example 3, Table 11), 5 ppm; in assay [1] (Example 3, Table 11), 37.5 ppm; with Citrobacter freundii (Example 3, Table 11), 10 ppm; with Proteus hauseri (Example 3, Table 11) it was 7.5 ppm. Further, the MIC worked out at 5 ppm in the assay with Staphylococcus aureus (Example 3, Table 14); 2.5 ppm with Alcaligenes faecalis (Example 3, Table 11); 50 ppm with Pseudomonas aeruginosa (Example 3, Table 11); 10 ppm in the assay with Pseudomonas stutzeri (Pseudomonas stutzeri, Example 3, Table 11); 25 ppm in the assay on Enterobacter aerogenes (Enterobacter aerogenes, Example 3, Table 11).
`CCCCCCCCCCCCNC(=N)N` [DGH, dodecylguanidine hydrochloride]: the MIC with Candida albicans was 25 µg/mL; in the assay on Paecilomyces formosus, 5 µg/mL; in the assay with Stachybotrys chartarum (Example 2, Table 10), 7.5 µg/mL; with Stachybotrys chartarum (Example 4, Table 23), 10 µg/mL; with Alternaria alternata it was 10 µg/mL; in the assay on Geotrichum candidum, 10 µg/mL. In addition, the MIC worked out at 7.5 µg/mL with Penicillium pinophilum; 2.5 µg/mL in the assay on Enterococcus hirae; 2.5 µg/mL in the assay on Bacillus subtilis (Example 2, Table 7); 3.75 µg/mL in the assay with Bacillus subtilis (Example 3, Table 11); 2.5 µg/mL in [1]; 5 µg/mL in the assay with Escherichia coli. The MIC is 5 µg/mL with Citrobacter freundii; 5 ppm in the assay with Citrobacter freundii (Example 3, Table 11); 10 µg/mL in the assay on Proteus hauseri; 1 µg/mL with Staphylococcus aureus; 1 ppm in the assay with Staphylococcus aureus (Example 3, Table 14); 10 µg/mL in the assay with Alcaligenes faecalis. In addition, the MIC in the assay with Alcaligenes faecalis (Example 3, Table 11) stood at 10 ppm; in the assay on Pseudomonas aeruginosa, 25 µg/mL; with Salmonella enterica, 10 µg/mL; in the assay on Pseudomonas stutzeri (Stutzerimonas stutzeri), 5 µg/mL; with Enterobacter aerogenes (Klebsiella aerogenes), 10 µg/mL.
